In PubChem BioAssay (NCI):
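Where inhibition never reached the appropriate level, the endpoint shown equals the highest concentration tested. Otherwise, values were interpolated linearly from a five-concentration, 48-hour dose response in 96-well plates. TGI: concentration producing complete growth inhibition.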

Legend:
Test in all cases: NCI tumour cell line growth inhibition, 48 h
RXF 393 renal = system: RXF 393 renal
HT29 colon = system: HT29 colon
OVCAR-4 ovarian = system: OVCAR-4 ovarian
CCRF-CEM leukemia = system: CCRF-CEM leukemia
SF-295 CNS = system: SF-295 CNS
K-562 leukemia = system: K-562 leukemia
M14 melanoma = system: M14 melanoma
OVCAR-5 ovarian = system: OVCAR-5 ovarian
RPMI-8226 leukemia = system: RPMI-8226 leukemia
NCI-H522 lung = system: NCI-H522 lung
SK-MEL-5 melanoma = system: SK-MEL-5 melanoma
HCT-116 colon = system: HCT-116 colon
HS 578T breast = system: HS 578T breast
NCI-H460 lung = system: NCI-H460 lung
ACHN renal = system: ACHN renal
COLO 205 colon = system: COLO 205 colon
SN12C renal = system: SN12C renal
MOLT-4 leukemia = system: MOLT-4 leukemia
MDA-MB-231 breast = system: MDA-MB-231 breast

| SMILES | TGI (RXF 393 renal) | TGI (HT29 colon) | TGI (OVCAR-4 ovarian) | TGI (CCRF-CEM leukemia) | TGI (SF-295 CNS) | TGI (K-562 leukemia) | TGI (M14 melanoma) | TGI (OVCAR-5 ovarian) | TGI (RPMI-8226 leukemia) | TGI (NCI-H522 lung) | TGI (SK-MEL-5 melanoma) | TGI (HCT-116 colon) | TGI (HS 578T breast) | TGI (NCI-H460 lung) | TGI (ACHN renal) | TGI (COLO 205 colon) | TGI (SN12C renal) | TGI (MOLT-4 leukemia) | TGI (MDA-MB-231 breast) |
| --- | --- | --- | --- | --- | --- | --- | --- | --- | --- | --- | --- | --- | --- | --- | --- | --- | --- | --- | --- |
| c1ccc2c(c1)CCN(C1=NCCO1)C2 | > 10 µM | > 10 µM | > 10 µM | > 10 µM | > 10 µM | > 10 µM | > 10 µM | > 10 µM | > 10 µM | > 10 µM | > 10 µM | > 10 µM | > 10 µM | > 10 µM | > 10 µM | > 10 µM | > 10 µM | > 10 µM | > 10 µM |
| COc1ccc(/C=C2\Sc3nnc(C)n3N=C2c2cc(F)c(Cl)cc2Cl)cc1OC | 32.7 µM | 26.6 µM | 28.8 µM | > 100 µM | 53.6 µM | 19.5 µM | 27.5 µM | 31.2 µM | 11.1 µM | 38.7 µM | 36.2 µM | 18.5 µM | > 100 µM | 53.1 µM | 27.1 µM | 54.3 µM | 34.5 µM | > 100 µM | 79.8 µM |
| CC(=O)OC(CC(C)C)P1(=O)N(CC(C)(C)C)[C@@H]2CCCC[C@H]2N1CC(C)(C)C (stereo partly specified) | 18.1 µM | 19 µM | 23.6 µM | > 93.3 µM | 20.4 µM | 23.9 µM | 19.8 µM | 22.9 µM | 15.3 µM | 19.2 µM | 21.9 µM | 16.2 µM | 25.3 µM | 22 µM | 19.3 µM | 18.2 µM | 24.4 µM | 25.3 µM | 19.7 µM |
| CCN(CC)c1ccc2c(c1)Oc1ccc(N(C(C)=O)c3ccccc3)cc1C21OC(=O)c2ccccc21 (stereo unspecified) | > 100 µM | > 100 µM | > 100 µM | > 100 µM | > 100 µM | > 100 µM | > 100 µM | > 100 µM | > 100 µM | > 100 µM | > 100 µM | > 100 µM | > 100 µM | > 100 µM | > 100 µM | > 100 µM | > 100 µM | > 100 µM | > 100 µM |
| CC(=O)[C@H]1CC[C@H]2[C@@H]3CCC4=CC(=O)CC[C@]4(C)[C@H]3CC[C@]12C | 57.9 µM | 29.7 µM | 79.3 µM | 48 µM | 76 µM | 43.2 µM | 32.4 µM | 50.9 µM | 26.3 µM | 31 µM | 24.8 µM | 28.5 µM | 19.7 µM | 42.4 µM | 75.2 µM | 29.5 µM | 41.1 µM | 35.2 µM | 33.2 µM |
| O=C1OC(C2Cc3ccccc3C2=O)c2ccccc21 (stereo unspecified) | > 100 µM | 60.5 µM | > 100 µM | > 100 µM | > 100 µM | > 100 µM | > 100 µM | > 100 µM | > 100 µM | > 100 µM | > 100 µM | > 100 µM | > 100 µM | > 100 µM | > 100 µM | > 100 µM | > 100 µM | > 100 µM | > 100 µM |
| Cc1ccc(S(=O)(=O)NC(=O)NC(Cc2ccccc2)C(=O)O)cc1 (stereo unspecified) | > 100 µM | > 100 µM | > 100 µM | > 100 µM | > 100 µM | > 100 µM | > 100 µM | > 100 µM | > 100 µM | > 100 µM | > 100 µM | > 100 µM | > 100 µM | > 100 µM | > 100 µM | > 100 µM | > 100 µM | > 100 µM | > 100 µM |
| O=C1C(Cl)=C(Oc2ccc([N+](=O)[O-])cc2)C(=O)c2c(O)ccc(O)c21 | 52.5 µM | > 83.1 µM | > 100 µM | 12.9 µM | > 100 µM | 40.3 µM | > 69.2 µM | > 100 µM | > 60.1 µM | 40.2 µM | > 100 µM | > 100 µM | > 100 µM | > 100 µM | > 100 µM | 42.3 µM | > 100 µM | 25.2 µM | 66 µM |
| N#Cc1nc(C(F)(F)F)oc1N | > 100 µM | > 100 µM | > 100 µM | > 100 µM | > 100 µM | > 100 µM | > 100 µM | > 100 µM | > 100 µM | > 100 µM | > 100 µM | > 100 µM | > 100 µM | > 100 µM | > 100 µM | > 100 µM | > 100 µM | > 100 µM | > 100 µM |
| [N-]=[N+]=C(C(=O)OCC#CCOC(=O)C(=[N+]=[N-])S(=O)(=O)c1ccccc1)S(=O)(=O)c1ccccc1 | > 10 µM | > 10 µM | > 10 µM | > 10 µM | > 10 µM | > 10 µM | > 10 µM | > 10 µM | > 10 µM | > 10 µM | > 10 µM | > 10 µM | > 10 µM | > 10 µM | > 10 µM | > 10 µM | > 10 µM | > 10 µM | > 10 µM |
| O=C(CCCC1Cc2ccccc2C1=O)c1ccccc1 (stereo unspecified) | > 100 µM | > 100 µM | > 100 µM | > 100 µM | > 100 µM | > 100 µM | > 100 µM | > 100 µM | > 100 µM | > 100 µM | > 100 µM | > 100 µM | > 100 µM | > 100 µM | > 100 µM | > 100 µM | > 100 µM | > 100 µM | > 100 µM |
| COC(=O)c1ccc(CCC2=CC(=O)C(Br)=CC2=O)cc1 | 32.3 µM | 30.9 µM | 30.9 µM | 0.887 µM | 37.4 µM | 4.84 µM | 28.3 µM | 33.6 µM | 49.3 µM | 10.5 µM | 24.6 µM | 30.3 µM | 45 µM | 34.5 µM | 25.1 µM | 18.7 µM | 32.5 µM | 7.32 µM | 38.7 µM |
| COc1ccc(C[C@H]2NC(=O)/C=C/C[C@@H]([C@H](C)[C@H]3O[C@@H]3c3ccccc3)OC(=O)[C@H](CC(C)C)OC(=O)[C@H](C)CNC2=O)cc1 | > 3.12e-05 µM | > 6.54e-05 µM | > 0.0001 µM | > 6.99e-05 µM | > 6.84e-05 µM | > 8.13e-05 µM | 6.84e-05 µM | > 0.0001 µM | > 0.0001 µM | > 0.0001 µM | 7.06e-05 µM | > 0.0001 µM | > 6.66e-05 µM | > 0.0001 µM | > 0.0001 µM | 4.99e-05 µM | > 0.0001 µM | > 0.0001 µM | > 8.79e-05 µM |
| COc1ccc(-c2cc(C3CC3)nc(SCC(=O)O)c2C#N)cc1 | > 100 µM | > 100 µM | > 100 µM | > 100 µM | > 100 µM | > 100 µM | > 100 µM | > 100 µM | > 100 µM | 71.6 µM | > 100 µM | > 100 µM | > 100 µM | > 100 µM | > 100 µM | > 100 µM | > 100 µM | > 100 µM | > 100 µM |
| Nc1nc2cc(CNc3ccc(C(=O)O)cc3)ccc2nc1-c1ccccc1 | > 100 µM | > 100 µM | > 100 µM | > 100 µM | > 100 µM | > 100 µM | > 100 µM | > 100 µM | > 100 µM | > 100 µM | > 100 µM | > 100 µM | > 100 µM | > 100 µM | > 100 µM | > 100 µM | > 100 µM | > 100 µM | > 100 µM |
| CCCN=C1Nc2ccccc2[C@@H]2N(C)c3ccccc3C(C)C[C@]12C (stereo partly specified) | 37.2 µM | 27.8 µM | 23.4 µM | 62.9 µM | 30.9 µM | > 100 µM | 33 µM | 46.8 µM | 41.7 µM | 39.8 µM | 29.2 µM | 30.4 µM | 41.9 µM | 55.4 µM | 60.5 µM | 38 µM | > 100 µM | 45.7 µM | 29.8 µM |
| COc1ccc2c(c1)c(=O)c1c(NCCCN(C)CCCNc3ccc4c(=O)n(CCN(C)C)c(=O)n5c6ccc(OC)cc6c(=O)c3c45)ccc3c(=O)n(CCN(C)C)c(=O)n2c31 | 0.602 µM | 1.28 µM | < 0.049 µM | 0.049 µM | 3.48 µM | 1.11 µM | 2.58 µM | 3.63 µM | 0.176 µM | 0.544 µM | 0.813 µM | 1.13 µM | 1.73 µM | 0.209 µM | 1.42 µM | 0.803 µM | 1.43 µM | 0.118 µM | 2.56 µM |
| NNC(=O)Cc1cccnc1 | > 100 µM | > 100 µM | > 100 µM | > 100 µM | > 100 µM | > 100 µM | > 100 µM | > 100 µM | > 100 µM | > 100 µM | > 100 µM | > 100 µM | > 100 µM | > 100 µM | > 100 µM | > 100 µM | > 100 µM | > 100 µM | > 100 µM |
| CN1[C@@H]2CCCC[C@H]2N(C)P1(=O)C(O)/C=C/c1ccccc1 (stereo partly specified) | > 100 µM | > 100 µM | > 100 µM | > 100 µM | > 100 µM | > 100 µM | > 100 µM | > 100 µM | > 100 µM | > 100 µM | > 100 µM | > 100 µM | > 100 µM | > 100 µM | > 100 µM | > 100 µM | > 100 µM | > 100 µM | > 100 µM |
